{"source": "ChEMBL document CHEMBL1201862", "about": "“PubChem BioAssay data set” (2004)", "assay_in_all_cases": "growth of human tumour cells (NCI), 48 h", "key": {"[1]": {"system": "HOP-92"}, "[2]": {"system": "M19-MEL"}, "[3]": {"system": "786-0"}, "[4]": {"system": "HL-60"}, "[5]": {"system": "IGROV-1"}, "[6]": {"system": "HCT-15"}, "[7]": {"system": "SF-268"}, "[8]": {"system": "M14"}, "[9]": {"system": "SNB-19"}, "[10]": {"system": "XF498"}, "[11]": {"system": "UACC-257"}, "[12]": {"system": "OVCAR-8"}, "[13]": {"system": "LXFL 529"}, "[14]": {"system": "DMS-273"}, "[15]": {"system": "EKVX"}, "[16]": {"system": "RPMI-8226"}, "[17]": {"system": "DLD-1"}, "[18]": {"system": "U-251"}, "[19]": {"system": "UACC-62"}, "[20]": {"system": "SK-MEL-28"}, "[21]": {"system": "NCI-H23"}, "[22]": {"system": "MOLT-4"}, "[23]": {"system": "OVCAR-4"}, "[24]": {"system": "RXF 631"}, "[25]": {"system": "SNB-78"}, "[26]": {"system": "HOP-18"}, "[27]": {"system": "TK-10"}, "[28]": {"system": "ACHN"}, "[29]": {"system": "SN12C"}, "[30]": {"system": "RXF 393"}, "[31]": {"system": "SK-OV-3"}, "[32]": {"system": "OVCAR-3"}, "[33]": {"system": "HCT-116"}, "[34]": {"system": "A498"}, "[35]": {"system": "K562"}, "[36]": {"system": "OVCAR-5"}, "[37]": {"system": "KM-20L2"}, "[38]": {"system": "HT-29"}, "[39]": {"system": "CCRF-CEM"}, "[40]": {"system": "A549"}, "[41]": {"system": "NCI-H460"}, "[42]": {"system": "HCC 2998"}, "[43]": {"system": "UO-31"}, "[44]": {"system": "SR"}, "[45]": {"system": "SK-MEL-5"}, "[46]": {"system": "KM12"}, "[47]": {"system": "HOP-62"}, "[48]": {"system": "SNB-75"}, "[49]": {"system": "SW-620"}, "[50]": {"system": "CAKI-1"}, "[51]": {"system": "SF-295"}, "[52]": {"system": "NCI-H522"}, "[53]": {"system": "LOX IMVI"}, "[54]": {"system": "SF-539"}}, "note": "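These data come from cells grown in 96-well plates and exposed to compound for 48 hours at five concentrations. GI50: concentration for 50% inhibition of growth.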 Calls of active or inactive are those of the source. Cut-off read from the data, not from the text of the source: active = GI50 up to about 1.1 µM and inactive = higher.", "data": [{"smiles": "Cc1ccccc1C(=O)N1CCN(C(=O)c2ccccc2C)CC1", "values": [{"measurement": "GI50", "setting": "[1]", "value": "> 100 µM (inactive)"}, {"measurement": "GI50", "setting": "[2]", "value": "> 100 µM (inactive)"}, {"measurement": "GI50", "setting": "[3]", "value": "> 100 µM (inactive)"}, {"measurement": "GI50", "setting": "[4]", "value": "> 100 µM (inactive)"}, {"measurement": "GI50", "setting": "[5]", "value": "> 100 µM (inactive)"}, {"measurement": "GI50", "setting": "[6]", "value": "> 100", "unit": "µM"}, {"measurement": "GI50", "setting": "[7]", "value": "> 100 µM (inactive)"}, {"measurement": "GI50", "setting": "[8]", "value": "> 100 µM (inactive)"}, {"measurement": "GI50", "setting": "[9]", "value": "> 100 µM (inactive)"}, {"measurement": "GI50", "setting": "[10]", "value": "> 100 µM (inactive)"}, {"measurement": "GI50", "setting": "[11]", "value": "> 100 µM (inactive)"}, {"measurement": "GI50", "setting": "[12]", "value": "> 100 µM (inactive)"}, {"measurement": "GI50", "setting": "[13]", "value": "> 100 µM (inactive)"}, {"measurement": "GI50", "setting": "[14]", "value": "> 100 µM (inactive)"}, {"measurement": "GI50", "setting": "[15]", "value": "> 100 µM (inactive)"}, {"measurement": "GI50", "setting": "[16]", "value": "> 100 µM (inactive)"}, {"measurement": "GI50", "setting": "[17]", "value": "> 100 µM (inactive)"}, {"measurement": "GI50", "setting": "[18]", "value": "> 100 µM (inactive)"}, {"measurement": "GI50", "setting": "[19]", "value": "> 100 µM (inactive)"}, {"measurement": "GI50", "setting": "[20]", "value": "> 100 µM (inactive)"}, {"measurement": "GI50", "setting": "[21]", "value": "> 100 µM (inactive)"}, {"measurement": "GI50", "setting": "[22]", "value": "> 100 µM (inactive)"}, {"measurement": "GI50", "setting": "[23]", "value": "> 100 µM (inactive)"}, {"measurement": "GI50", "setting": "[24]", "value": "> 100 µM (inactive)"}, {"measurement": "GI50", "setting": "[25]", "value": "> 100 µM (inactive)"}, {"measurement": "GI50", "setting": "[26]", "value": "> 100 µM (inactive)"}, {"measurement": "GI50", "setting": "[27]", "value": "> 100 µM (inactive)"}, {"measurement": "GI50", "setting": "[28]", "value": "> 100 µM (inactive)"}, {"measurement": "GI50", "setting": "[29]", "value": "> 100 µM (inactive)"}, {"measurement": "GI50", "setting": "[30]", "value": "> 100 µM (inactive)"}, {"measurement": "GI50", "setting": "[31]", "value": "> 100 µM (inactive)"}, {"measurement": "GI50", "setting": "[32]", "value": "> 100 µM (inactive)"}, {"measurement": "GI50", "setting": "[33]", "value": "> 100 µM (inactive)"}, {"measurement": "GI50", "setting": "[34]", "value": "> 100 µM (inactive)"}, {"measurement": "GI50", "setting": "[35]", "value": "> 100 µM (inactive)"}, {"measurement": "GI50", "setting": "[36]", "value": "> 100 µM (inactive)"}, {"measurement": "GI50", "setting": "[37]", "value": "> 100 µM (inactive)"}, {"measurement": "GI50", "setting": "[38]", "value": "> 100 µM (inactive)"}, {"measurement": "GI50", "setting": "[39]", "value": "> 100 µM (inactive)"}, {"measurement": "GI50", "setting": "[40]", "value": "> 100 µM (inactive)"}, {"measurement": "GI50", "setting": "[41]", "value": "> 100 µM (inactive)"}, {"measurement": "GI50", "setting": "[42]", "value": "> 100 µM (inactive)"}, {"measurement": "GI50", "setting": "[43]", "value": "> 100 µM (inactive)"}, {"measurement": "GI50", "setting": "[44]", "value": "> 100 µM (inactive)"}, {"measurement": "GI50", "setting": "[45]", "value": "> 100 µM (inactive)"}, {"measurement": "GI50", "setting": "[46]", "value": "> 100 µM (inactive)"}, {"measurement": "GI50", "setting": "[47]", "value": "> 100 µM (inactive)"}, {"measurement": "GI50", "setting": "[48]", "value": "> 100 µM (inactive)"}, {"measurement": "GI50", "setting": "[49]", "value": "> 100 µM (inactive)"}, {"measurement": "GI50", "setting": "[50]", "value": "> 100 µM (inactive)"}, {"measurement": "GI50", "setting": "[51]", "value": "> 100 µM (inactive)"}, {"measurement": "GI50", "setting": "[52]", "value": "> 100 µM (inactive)"}, {"measurement": "GI50", "setting": "[53]", "value": "> 100 µM (inactive)"}, {"measurement": "GI50", "setting": "[54]", "value": "> 100 µM (inactive)"}]}]}
